Laboratory results taken from patent US5919755A, “Medical use of heme products” (Leiras OY, priority 1995, dated 1999).
Values joined by “and” are separate entries in the source; they are usually repeats but may differ in a detail not shown here. Equal entries are not always repeated. Where two headings read alike, the source gives them in different places.

Columns and labels:
[1] = cited from earlier work
[2] = cited from earlier work; remark: listed apart in the source
[3] = system: human erythroid precursors; experiment: Induction of production of fetal hemoglobin in vitro (two-phase liquid culture, HPLC); format: cell-based
Text: Cells grown in phase II in the presence of the indicated concentrations of heme arginate, were harvested on day 13 and their hemoglobin quantitated.
Cells grown in phase II in the presence of the indicated concentrations of heme arginate, were harvested on day 13 and their hemoglobin chromatographed and quantitated.
Cells grown in phase II in the absence or presence of heme arginate from day 0 and with the indicated concentrations of hydroxyurea from day 5, were harvested on day 13 and their hemoglobin chromatographed and quantitated.
3. Induction of production of fetal hemoglobin in vitro
Peripheral blood mononuclear cells obtained from normal volunteers and either sickle cell anemia or β-thalassemia patients were isolated by centrifugation on a gradient of Ficoll-Hypaque and seeded at a density of 5×10^6 cells/ml in alpha-minimal essential medium supplemented with 10% fetal calf serum (FCS), 1 μg/ml cyclosporin A, and 10% conditioned medium collected from cultures of the 5637 bladder-carcinoma cell line. The cultures were incubated at +37° C. in an atmosphere of 5% CO2 in air with extra humidity.
Following 7-day incubation in this phase I culture, the non-adherent cells were harvested, washed, and recultured in fresh medium composed of alpha-medium, 30% FCS, 1% deionized bovine serum albumin, 1×10^-5 M β-mercaptoethanol, 1.5 mM glutamine, 1×10^-6 M dexamethasone, and 1 U/ml human recombinant erythropoietin. Hemoglobin containing cells were determined by using the benzidine-HCl procedure.
The effect of heme arginate on fetal hemoglobin (Hb-F) production was determined by growing human erythroid precursors in the second phase of the above described liquide cell culture in the presence of 1 U/ml erythropoietin and different concentrations of heme arginate. The combination effect of heme arginate and hydroxyurea was investigated with 100 μM heme arginate added on day 0 and various concentrations of hydroxyurea added on day 5. Cells were harvested on day 13 and lysed, and their total hemoglobin and Hb-F content was analyzed by cation-exchange HPLC.

[4] = rat, intravenous dose of 3 mg/kg; cited from earlier work
[5] = system: myelodysplastic syndromes; settings: part of MDS patients; cited from earlier work
[6] = humans, intravenous dose of 3 mg/kg; cited from earlier work
plasma proteins = settings: after infusion into the blood stream; cited from earlier work
myelodysplastic syndrome [7] = settings: cited from earlier work
blasts in bone marrow = experiment: Proportion of blasts in the bone marrow of myelodysplastic patients; format: in vivo, human; settings: for Blasts in bone marrow, after / Myeloblasts in bone marrow, after / Sum of blasts and myeloblasts in bone marrow, after: one week after last of 15 infusions, 3 mg hemin/kg i.v.; for Myelodysplastic syndrome subtype, after: after treatment
Method: 2. Proportion of blasts in the bone marrow of myelodysplastic patients
In a clinical study patients with myelodysplastic syndromes were treated with intravenous infusions of heme arginate at the dose level 3 mg hemin/kg. The infusions were given first on four consecutive days and after that once a week for eleven weeks. Thus totally 15 infusions were given to each patient.
Bone marrow sample was collected from each patient before start of the heme arginate infusions and one week after the last infusion. Proportion of blasts and myeloblasts were determined in the bone marrow samples by using standard hematological laboratory procedures. The definition of "a blast" as used in the classification of myelodysplastic syndromes includes both blasts and myeloblasts (9).

[8] = system: polychromatic erythrocytes; experiment: Mouse micronucleus assay (micronucleated polychromatic erythrocytes in bone marrow smears); format: in vivo, mouse (CD-1 outbred, Swiss origin); settings: for Incidence: number of micronucleated polychromatic erythrocytes per 1000 polychromatic erythrocytes examined: 36 mg/kg i.v.
Text: 1. Mouse micronucleus assay
Micronuclei are seen in a variety of cells, but erythrocytes are chosen for examination since micronuclei are easily detected in this cell type.
A few hours after the last mitosis is completed, erythroblasts expel their nucleus. Young erythrocytes stain blue with Giemsa due to the presence of ribonucleic acid, which gradually disappears so that more mature erythrocytes stain pink with Giemsa. The young blue-staining cells are known as polychromatic erythrocytes and micronuclei are readily detected in this cell type.
The test animals were specific pathogen free CD-1 outbred mice of Swiss origin weighing between 22 and 24 grams and approximately 40 days old during the study. The mice were acclimatized for four days and after that dosed by intravenous injection with a volume of 10 ml/kg body weight either with saline solution (vehicle control) or with heme arginate solution at the dose 36 mg hemin/kg body weight. Five male and five female mice were sacrificed by cervical dislocation 24, 48, and 72 hours after dosing. A direct bone marrow smear was made from femur onto a slide containing a drop of calf serum. The smears were fixed in methanol, air dried, and stained for 10 minutes in 10% Giemsa solution. The stained smears were examined (under code) by light microscopy to determine the incidence of micronucleated cells per 1000 polychromatic erythrocytes per animal.

myelodysplastic syndrome [9] = settings: cited from earlier work; remark: listed apart in the source
[10] = Table 3, one line per patient, baseline before treatment
[11] = Table 4, patients not considered good responders, one line per patient, baseline before treatment
[12] = Table 4, patients not considered good responders, one line per patient
[13] = of 26 patients, 2-3 mg hemin/kg

Compound: C=CC1=C(C)c2cc3[n-]c(cc4[n-]c(cc5nc(cc1n2)C(C)=C5C=C)c(C)c4CCC(=O)O)c(CCC(=O)O)c3C.O.[Fe+2] [hematin]
- adverse effects ([1]; in vivo, iv): often complicated by adverse effects, including phlebitis at the infusion site and disturbances in hemostasis

Compound: Hemin
- solubility [2]: poorly soluble

Compound: heme arginate
- amount of total hemoglobin produced ([3]; FIG. 1, phase II culture, harvested day 13, erythroid precursors from patients with hemoglobinopathies): increases the amount of total hemoglobin
- proportion of fetal hemoglobin (Hb-F) ([3]; FIG. 2, phase II culture, harvested day 13, heme arginate alone): increases the proportion of fetal hemoglobin
- effect of heme arginate on proportion of fetal hemoglobin (Hb-F) in presence of hydroxyurea ([3]; FIG. 3, heme arginate 100 μM from day 0, hydroxyurea 25-200 μM from day 5, harvested day 13): potentiated by the presence of hydroxyurea
- solubility [2]: increases the aqueous solubility
- AUC [4]: 64 µg/mL/h
- effect on blood cell counts [5]: clinically effective in part of MDS patients by increasing the blood cell counts
- AUC [6]: 998 µg/mL/h
- plasma protein binding (plasma proteins): quickly bound to the plasma proteins in monomeric form
- patients with MDS progression (myelodysplastic syndrome [7]; of 14 patients (15)): 4/14
- patients with decrease of blasts (myelodysplastic syndrome [7]; of 14 patients (15), considered to be an occasional event): 1/14
- patients with long-lasting improvement in hemoglobin values and/or platelet counts (myelodysplastic syndrome [7]; of 14 patients, 3 mg hemin/kg): Three
- duration of long-lasting improvement in hemoglobin values and/or platelet counts (myelodysplastic syndrome [7]; single patients, 3 mg hemin/kg): 5 months and 26 months and > 41 months
- Blasts in bone marrow, before (blasts in bone marrow; Table 3, RAEB or RAEB-t patients, one line per patient, baseline before treatment): 4% and 3% and 6% and 15% and 10%
- Blasts in bone marrow, after (blasts in bone marrow; Table 3, RAEB or RAEB-t patients, one line per patient): 0% and 1% and 4% and 6%
- Myelodysplastic syndrome subtype, after (blasts in bone marrow; Table 3, one line per patient): RARS and RAEB
- Myeloblasts in bone marrow, before (blasts in bone marrow; [10]): 6% and 8% and 4% and 3% and 20%
- Myelodysplastic syndrome subtype, before (blasts in bone marrow; [10]): RAEB and RAEB-t
- Myeloblasts in bone marrow, after (blasts in bone marrow; Table 3, one line per patient): 4% and 3%
- Sum of blasts and myeloblasts in bone marrow, after (blasts in bone marrow; Table 3 and text, one line per patient): 4% and 8% and 10%
- patients with a clear decrease of blasts (blasts in bone marrow; Table 3 patients, of 21): 5/21
- Blasts in bone marrow, before (blasts in bone marrow; Table 4, RARS or RAEB patients not considered good responders, one line per patient, baseline before treatment): 5 and 8 and 2 and 3 and 1 and 4 and 0
- Myelodysplastic syndrome subtype, after (blasts in bone marrow; Table 4, one line per patient): RAEB and RARS
- Myelodysplastic syndrome subtype, before (blasts in bone marrow; Table 4, one line per patient, baseline before treatment): RAEB and RARS
- Myeloblasts in bone marrow, before (blasts in bone marrow; [11]): 4 and 2 and 8 and 9 and 3 and 10 and 5 and 1
- Sum of blasts and myeloblasts in bone marrow, before (blasts in bone marrow; [11]): 9 and 12 and 4 and 5 and 7 and 14 and 13 and 3 and 1 and 10
- Blasts in bone marrow, after (blasts in bone marrow; [12]): 5 and 8 and 0 and 2 and 3 and 1 and 4
- Myeloblasts in bone marrow, after (blasts in bone marrow; [12]): 3 and 2 and 1 and 7 and 6 and 10 and 9 and 5 and 0
- Sum of blasts and myeloblasts in bone marrow, after (blasts in bone marrow; [12]): 8 and 11 and 2 and 3 and 7 and 13 and 4 and 12 and 6 and 1 and 9
- patients with a smaller decrease of blasts (blasts in bone marrow; Table 4 patients, of 21): 12/21
- patients with no effect on blasts (blasts in bone marrow; Table 4 patients, of 21): 1/21
- patients with slight increase of blasts (blasts in bone marrow; Table 4 patients, of 21): 3/21
- patients with some decrease of blasts, totally (blasts in bone marrow; all patients, of 21): 17/21
- effect on proportion of blasts in bone marrow (blasts in bone marrow; some MDS patients): able to decrease proportion of blasts
- Incidence: number of micronucleated polychromatic erythrocytes per 1000 polychromatic erythrocytes examined ([8]; killed 24 hours after dosing, vehicle control 1.2): 1.1 per 1000 polychromatic erythrocytes
- Incidence: number of micronucleated polychromatic erythrocytes per 1000 polychromatic erythrocytes examined ([8]; killed 48 hours after dosing, vehicle control 1.0): 0.5 per 1000 polychromatic erythrocytes
- Incidence: number of micronucleated polychromatic erythrocytes per 1000 polychromatic erythrocytes examined ([8]; killed 72 hours after dosing, vehicle control 1.0): 0.4 per 1000 polychromatic erythrocytes
- effect on incidence of mutagenesis (mouse micronucleus test) ([8]; in vivo, 36 mg/kg): able to decrease incidence of mutagenesis
- adverse effects ([1]; intravenous use, incl. phlebitis at infusion site and disturbances in hemostasis): lack of serious adverse effects
- adverse effects ([1]; intravenous use, incl. phlebitis at infusion site and disturbances in hemostasis, listed as Heme arginate): seldom produces these effects and therefore is better tolerated
- patients with MDS progression (myelodysplastic syndrome [9]; of 26 patients (13)): 4/26
- patients showing improvement in cytopenias during the therapy (myelodysplastic syndrome [9]; [13]): Six
- patients with long-lasting good response with normal or close to normal blood cell counts (myelodysplastic syndrome [9]; [13]): three
- duration of long-lasting good response (myelodysplastic syndrome [9]; single patients, 2-3 mg hemin/kg): > 11 months and > 12 months and 25 months
